# Patent US11939583B2, “Method of producing autotrophic organisms with altered photorespiration and improved CO2 fixation” (Max-Planck-Gesellschaft zur Förderung der Wissenschaften …, priority 2018, dated 2024)
# B1: aspartate-glyoxylate aminotransferase (AGAT) (Paracoccus denitrificans PD1222) (protein)
# chain: MTSQNPIFIPGPTNIPEEMRKAVDMPTIDHRSPVFGRMLHPALEGVKKVLKTTQAQVFLFPSTGTGGWETAITNTLSPGDKVLAARNGMFSHRWIDMCQRHGLDVTFVETPWGEGVPADRFEEILTADKGHEIRVVLATHNETATGVKSDIAAVRRALDAAKHPALLFVDGVSSIGSMDFRMDEWGVDIAVTGSQKGFMLPPGLAIVGFSPKAMEAVETARLPRTFFDIRDMATGYARNGYPYTPPVGLINGLNASCERILAEGLENVFARHHRIASGVRAAVDAWGLKLCAVRPELYSDSVSAIRVPEGFDANLIVSHALETYDMAFGTGLGQVAGKVFRIGHLGSLTDAMALSGIATAEMVMADLGLPIQLGSGVAAAQEHYRQTTAAAQKKAA
# notes: His-tag (N); made in house; host or cells: E. coli BL21 AI
# Key:
# [1] = system: expression levels of enzymes of the BHAP; experiment: Whole-cell shotgun proteomics, glycolate-grown vs. acetate-grown cells; format: cell-based, P. denitrificans; conditions: cells grown on 60 mM glycolate compared to 60 mM acetate, FIG. 4
# Description: To acquire the proteome of P. denitrificans growing on different carbon sources, 20 mL cultures were grown to mid-exponential phase (OD600 ˜0.5) in minimal medium supplemented with 60 mM acetate or 60 mM glycolate. 4 replicate cultures were grown for each carbon source. Main cultures were inoculated from precultures grown in the same medium in a 1:1,000 dilution. Cultures were harvested by centrifugation at 4,000× g and 4° C. for 15 min. Supernatant was discarded and pellets were washed in 40 mL phosphate buffered saline (PBS; 137 mM NaCl, 2.7 mM KCl, 10 mM Na2HPO4, 1.8 mM KH2PO4, pH 7.4). […] Cell pellets in Eppendorf tubes were snap-frozen in liquid nitrogen and stored at −80° C. until they were used for the preparation of samples for LC-MS analysis and label-free quantification.
# For whole cell lysis, cell pellets were first resuspended in 200 μL NH4HCO3 (100 mM supplemented with 5% SDS). […] Protein concentration in samples was determined via Pierce™ BCA assay (Thermo Scientific). […] Peptide mixes were recovered in 2% DMSO and then in 0.5% trifluoracetic acid (TFA) and analyzed via LC-MS on an electrospray ion source-connected Thermo QExactive Plus mass spectrometer (Thermo Scientific). […] Label-free data quantification was performed according to (Nature 2011, 473, 337; Proteomics 2013, 13, 2567; and J Proteome Res 2015, 14, 4472). […]
# [2] = molecular target: T1, iminosuccinate reductase (ISRed) (Paracoccus denitrificans, UniProt A1B8Z0); experiment: Enzyme assay, apparent kinetic parameters of ISRed; format: biochemical, Paracoccus denitrificans DSM 413; conditions: 30° C.; for Km: pH 7.5, cofactors measured with 2 mM (2R,3S)-β-hydroxyaspartate and BHAD, read-out: app. KM
# T1 construct: His-tag (N); made in house; host or cells: E. coli BL21 AI
# Description: (§1) In all enzyme assays, the oxidation of NADH or NADPH was followed at 340 nm or 360 nm on a Cary 60 UV-Vis photospectrometer (Agilent, Santa Clara, USA) in quartz cuvettes with a path length of 1 mm or 10 mm (Hellma Optik GmbH, Jena, Germany).
# The enzyme assay to determine the apparent kinetic parameters of ISRed was performed at 30° C. in a total volume of 250 μL. The reaction mixture contained 100 mM potassium phosphate buffer pH 7.5, 0.2 mM NADH, 0.1 mM PLP, varying amounts of (2R,3S)-β-hydroxyaspartate, and appropriate amounts of the enzymes BHAD and ISRed. Kinetics for iminosuccinate were measured with 15 nM ISRed, and appropriate amounts of (2R,3S)-β-hydroxyaspartate and BHAD to generate the desired concentrations of iminosuccinate at the onset of the reaction. Kinetics for NADH and NADPH were measured with 2 mM (2R,3S)-β-hydroxyaspartate, 214 nM BHAD, 28 nM ISRed, and varying amounts of the respective cofactor.
# [3] = molecular target: T2, aspartate-glyoxylate aminotransferase (AGAT) (Paracoccus denitrificans, UniProt A1B8Z3); experiment: Enzyme assay, kinetic parameters of AGAT; format: biochemical, Paracoccus denitrificans DSM 413; conditions: 30° C., pH 7.5, co-substrate fixed (20 mM L-aspartate, 5 mM glyoxylate, 20 mM oxaloacetate or 30 mM glycine); for Km: read-out: app. KM
# T2 construct: His-tag (N); made in house; host or cells: E. coli BL21 AI
# T2 sequence (A1B8Z3 1-396): B1 chain
# Description: as §1
# (§2) The enzyme assay to determine the kinetic parameters of AGAT with glyoxylate and L-aspartate as substrates was performed at 30° C. in a total volume of 300 μl. The reaction mixture contained 100 mM potassium phosphate buffer pH 7.5, 0.1 mM PLP, 0.2 mM NADH, varying amounts of the respective substrates, and 32 nM AGAT. Mdh was added in excess as coupling enzyme to convert oxaloacetate into malate. Kinetics for glyoxylate were measured with 20 mM L-aspartate; kinetics for L-aspartate were measured with 5 mM glyoxylate. To determine the kinetic parameters with oxaloacetate and glycine as substrates, the same assay mixture was used and GhrA was added in excess as coupling enzyme to convert glyoxylate into glycolate. […] To determine the kinetic parameters with L-serine or L-glutamate and glyoxylate as substrates, the same assay mixture was used and BHAD, BHAA, and Mdh were added in excess as coupling enzymes. Kinetics for L-serine and L-glutamate were measured with 5 mM glyoxylate.
# Pbhc-BhcR complex = experiment: Electrophoretic mobility shift assay, effect of glyoxylate on complex formation; format: binding, P. denitrificans DSM 413; conditions: increasing concentrations of glyoxylate (0.01-1 mM), EMSA, FIG. 5
# From the text: Fluorescently labeled DNA fragments for electrophoretic mobility shift assays (EMSA) were generated by PCR from genomic DNA of P. denitrificans DSM 413. For the Pbhc regulatory region, primers Pbhc_fw and Pbhc_rev-dye were used to generate a 238-bp fragment containing the putative Pbhc promoter. The primers AGAT-Fw and AGAT_rev-dye were used to generate a 255-bp fragment containing a fragment of the AGAT gene as negative controle. Pbhc rev dye and AGAT rev dye were 5′-labelled with the Dyomics 781 fluorescent dye (Microsynth AG, Balgach, Switzerland). Binding reactions between the DNA fragments (0.025 pmol), various amounts of the purified protein BhcR (400x/2,000x/4,000x/10,000x/20,000x/40,000x molar excess), and various concentrations of glyoxylate (0.01/0.05/0.1/0.2/0.5/1 mM final concentration) were performed in buffer A (20 mM potassium phosphate pH 7.0, 1 mM DTT, 5 mM MgCl2, 50 mM KCl, 15 μg mL^−1 bovine serum albumin, 50 μg mL^−1 herring sperm DNA, 5% v/v glycerol, 0.1% Tween20) in a total volume of 20 μL. After incubation of the reaction mixtures at 37° C. for 20 min, the samples were loaded onto a native 5% polyacrylamide gel and electrophoretically separated at 110 V for 60 min. BhcR:DNA-interactions were detected using an Odyssey FC Imaging System (LI-COR Biosciences, Lincoln, USA).
# [4] = molecular target: T3, β-hydroxyaspartate aldolase (BHAA) (Paracoccus denitrificans, UniProt A1B8Z1); experiment: Enzyme assay, kinetic parameters of BHAA; format: biochemical, Paracoccus denitrificans DSM 413; conditions: 30° C., pH 7.5, glycine with 5 mM glyoxylate, glyoxylate with 20 mM glycine
# T3 construct: His-tag (N); made in house; host or cells: E. coli BL21 AI
# T3 sequence (A1B8Z1 1-387): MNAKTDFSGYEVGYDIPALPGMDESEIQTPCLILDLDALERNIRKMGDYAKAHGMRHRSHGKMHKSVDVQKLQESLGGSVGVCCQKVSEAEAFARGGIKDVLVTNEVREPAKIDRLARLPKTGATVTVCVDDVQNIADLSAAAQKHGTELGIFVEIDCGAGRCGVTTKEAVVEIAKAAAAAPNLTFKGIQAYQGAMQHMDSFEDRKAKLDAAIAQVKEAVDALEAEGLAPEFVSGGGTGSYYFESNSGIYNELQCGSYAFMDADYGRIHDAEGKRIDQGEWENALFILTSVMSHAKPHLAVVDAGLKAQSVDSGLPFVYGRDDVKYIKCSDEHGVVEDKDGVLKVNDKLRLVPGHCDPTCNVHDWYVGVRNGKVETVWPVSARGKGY
# Description: as §1
# The reaction mixture contained 100 mM potassium phosphate buffer pH 7.5, 0.1 mM PLP, 0.2 mM NADH, 0.5 mM MgCl2, varying amounts of the respective substrates, and 4 nM BHAA. BHAD and ISRed were added in excess as coupling enzymes. […] To determine the kinetic parameters with (2R,3S)-β-hydroxyaspartate as substrate, the same assay mixture was used and GhrA was added in excess as coupling enzyme to convert glyoxylate into glycolate. To determine the kinetic parameters with D-threonine as substrate, the same assay mixture was used and alcohol dehydrogenase from Saccharomyces cerevisiae (Sigma-Aldrich, St. Louis, USA) was added in excess as coupling enzyme to convert acetaldehyde into ethanol.
# [5] = molecular target: T4, β-hydroxyaspartate dehydratase (BHAD) (Paracoccus denitrificans, UniProt A1B8Z2); experiment: Enzyme assay, kinetic parameters of BHAD; format: biochemical, Paracoccus denitrificans DSM 413; conditions: 30° C., pH 7.5, ISRed as coupling enzyme
# T4 construct: His-tag (N); made in house; host or cells: E. coli BL21 AI
# Description: as §1
# The enzyme assay to determine the kinetic parameters of BHAD was performed at 30° C. in a total volume of 300 μl. The reaction mixture contained 100 mM phosphate buffer pH 7.5, 0.1 mM PLP, 0.2 mM NADH, varying amounts of the substrate (2R,35)-β-hydroxyaspartate, and 29 nM BHAD. ISRed was added in excess as coupling enzyme to convert iminosuccinate into L-aspartate. (2R,3S)-β-Hydroxyaspartate was custom-synthesized by NewChem (Newcastle upon Tyne, United Kingdom), and was determined to be >95% pure by NMR analysis.
# [6] = substrate: NCC(=O)O; experiment: purified protein, by the assay type; conditions: other: enzyme AGAT, 30° C., pH 7.5, co-substrate fixed (20 mM L-aspartate, 5 mM glyoxylate, 20 mM oxaloacetate or 30 mM glycine)
# [7] = substrate: N[C@@H](CO)C(=O)O; experiment: Enzyme assay, kinetic parameters of AGAT; format: biochemical, Paracoccus denitrificans DSM 413; conditions: other: enzyme AGAT, 30° C., pH 7.5, co-substrate fixed (20 mM L-aspartate, 5 mM glyoxylate, 20 mM oxaloacetate or 30 mM glycine)
# Description: as §1, §2
# [8] = substrate: O=C(O)CC(=O)C(=O)O; experiment: Enzyme assay, kinetic parameters of AGAT; format: biochemical, Paracoccus denitrificans DSM 413; conditions: other: enzyme AGAT, 30° C., pH 7.5, co-substrate fixed (20 mM L-aspartate, 5 mM glyoxylate, 20 mM oxaloacetate or 30 mM glycine)
# Description: as §1, §2
# [9] = substrate: O=CC(=O)O; experiment: Enzyme assay, kinetic parameters of AGAT; format: biochemical, Paracoccus denitrificans DSM 413; conditions: other: enzyme AGAT, 30° C., pH 7.5, co-substrate fixed (20 mM L-aspartate, 5 mM glyoxylate, 20 mM oxaloacetate or 30 mM glycine)
# Description: as §1, §2
molecule,measurement,setting,value
O=C(O)CO [glycolate],expression of all four enzymes of the BHAP,[1],strongly increased expression
N=C(CC(=O)O)C(=O)O [Iminosuccinate],Km,[2],88 ± 10 µM
same,app. kcat,"[2]; pH 7.5, iminosuccinate generated from (2R,3S)-β-hydroxyaspartate by BHAD",201.04 ± 10.20 s⁻¹
N[C@@H](CCC(=O)O)C(=O)O [L-Glutamate],app. kcat,[3],5.03 ± 0.26 s⁻¹
same,Km,[3],20600 ± 2330 µM
O=CC(=O)O [Glyoxylate],effect on binding of BHAR to the promoter region,Pbhc-BhcR complex,binding was decreased
NC(=O)C1=CN([C@@H]2O[C@H](COP(=O)(O)OP(=O)(O)OC[C@H]3O[C@@H](n4cnc5c(N)ncnc54)[C@H](O)[C@@H]3O)[C@@H](O)[C@H]2O)C=CC1 [NADH],Km,[2],23 ± 3 µM
"N[C@@H](C(=O)O)[C@H](O)C(=O)O [(2R,3S)-β-hydroxyaspartate]",app. kcat,[4],33.11 ± 1.29 s⁻¹
same,Km,[4]; read-out: app. KM,280 ± 30 µM
same,app. kcat,[5],35.01 ± 0.82 s⁻¹
same,Km,[5]; read-out: app. KM,200 ± 20 µM
NADPH,Km,[2],330 ± 50 µM
N[C@@H](CC(=O)O)C(=O)O [L-Aspartate],app. kcat,[3],56.36 ± 0.73 s⁻¹
same,Km,[3],2510 ± 100 µM
B1,Km,[6],9520 ± 400 µM
same,kcat,[6],0.76 s⁻¹
same,kcat/Km,[6],79.7 M⁻¹ s⁻¹
same,Km,[7],2100 ± 240 µM
same,kcat,[7],8.82 ± 0.31 s⁻¹
same,kcat/Km,[7],4200 M⁻¹ s⁻¹
same,Km,[8],2900 ± 270 µM
same,kcat,[8],0.76 ± 0.02 s⁻¹
same,kcat/Km,[8],262 M⁻¹ s⁻¹
same,Km,[9],430 ± 20 µM
same,kcat,[9],58.1 ± 0.82 s⁻¹
same,kcat/Km,[9],134000 M⁻¹ s⁻¹
